Where a SMILES comes first, the peptide text is derived from it. Where no end group is shown, it is not given here. The star is where a group is joined. Lithocholoyl = C[C@H](CCC(=O)*)[C@H]1CC[C@H]2[C@@H]3CC[C@@H]4C[C@H](O)CC[C@]4(C)[C@H]3CC[C@]12C
Assays:
CT-26 cells = experiment: Membrane permeabilization study (ethidium bromide staining, flow cytometry); assay type: cell-based; details: for levels of staining: pH 7.4; for cells stained (ethidium bromide fluorescence): 10 μM SSP
Protocol: Membrane permeabilization studies were performed to find out whether SSP was able to form pores through plasma membranes and whether this phenomenon had any pH dependence or not. SSP prepared according to Example 1 was used at micromolar concentrations on cells preincubated with ethidium bromide, which intercalates between the strands of dsDNA and causes it to fluoresce. Ethidium bromide on its own is a poor membrane permeant, however, if the membranes are permeabilized, it would rapidly cross the cytoplasm, accumulate in the nucleus, and bind to the cellular DNA. Its fluorescent property would allow us to thus find the extent to which permeabilization via SSP occurred.
The membrane permeabilization activity of SSP was determined using flow cytometry. CT-26 cells were grown overnight and at 70-80% confluency were trypsinized and centrifuged. Cells were washed several times in 1×PBS (pH 7.4) and eventually resuspended in it to make cell suspensions of 1×10^6 cells/ml. One microliter of ethidium bromide (10 mg/ml) was mixed in 0.5 ml of cell suspension aliquots and stored at 4° C. 15 minutes before use. The pH of cell suspensions was adjusted to values 5,6,7, or 8 using either 1N NaOH or 1N HCl solutions 5 minutes before starting the experiment. SSP was finally used to permeabilize the membranes at the same final concentration for pH studies or at different concentrations at pH 7.4. Temperature effects at 4° C. and 37° C. were also studied to find any temperature dependent differences in permeabilization. After 5 and 15 minutes incubation, the cell fluorescence intensity was measured using FACScan Analyzer (Becton Dickinson, Sunnyvale, Calif.), which has a single 15-mW argon (488 nm) laser light source. A 585 nm long pass filter was used to collect the emitted red fluorescence. The forward scatter, side scatter, and ethidium bromide fluorescence were simultaneously recorded with 10,000 cells at 300 events per second. The results were later analyzed using cell quest software provided by the same manufacturer. Histogram statistics were used to quantitatively determine the extent of permeabilization.

plasmid DNA = experiment: Condensation of plasmid DNA (gel electrophoresis); assay type: physicochemical; details: 4.5% (w/v) glucose, phosphate buffer pH 8.0
Protocol: Various formulations of SSP/p2CMVmIL-12 were prepared as follows: 100 μL aliquots of SSP at various concentrations and pDNA (0.2 mg/ml) were prepared in 4.5% (w/v) glucose to bring the osmolality to 285-295 mOsm, and 1M phosphate buffer was used to bring the pH to 8.0 of both aliquots. SSP/pDNA complexes at various N/P ratios ranging from 0.5/1 (N/P) to 50/1 (N/P) were prepared by rapidly mixing contents of SSP aliquot in pDNA aliquots using a pipettor. N/P ratio was calculated by taking into account 3 nitrogens for each arginine in SSP, thereby resulting in 18 nitrogens for each SSP molecule. The SSP/pDNA complexes were incubated for 15 minutes at room temperature before electrophoresis.

[1] = system: CT-26 colon carcinoma cell lines; experiment: In vitro transfection, luciferase activity; assay type: cell-based; details: CT-26 cells, controls without carrier conjugate or without plasmid
Protocol: SSP/pLuc and SSP/p2CMVmIL-12 complexes formulated at various N/P ratios in 5% (w/v) glucose were evaluated for their transfection efficiency in CT-26 colon carcinoma cell lines. In the case of luciferase gene controls, cells were lysed after transfection and the relative light units (RLU) and total protein concentration were determined. […] The transfection efficiency increased with the increase in N/P ratios but diminished slightly with ratios 50/1 and above which could possibly be due to cytotoxicity towards CT-26 cells. On visual inspection under light microscope some granulation of cells was found, and cytotoxicity tests indicate that above N/P ratios 50/1 the cell viability is reduced by about 80%, which would account for lower gene expression.
In case of pLuc, CT-26 cells were seeded in 12-well tissue culture plates at 1×10^5 cells per/well in 10% FBS containing RPMI 1640 media. Cells achieved 70% confluency within 24 hours, after which they were transfected with SSP/pDNA complexes prepared at different N/P ratios ranging from 5/1 to 50/1 as described above. […] Luciferase activity was measured in terms of relative light units (RLU) using 96 well plate Luminometer (Dynex Technologies Inc, Chantilly, Va.). The luciferase activity was monitored and integrated over a period of 30 secs. […]

[2] = mouse, CT-26 colon adeno-carcinoma cells
Protocol: (§1) Cytotoxicity of SSP/p2CMVmIL-12 complexes prepared at different N/P ratios were assessed using an MTT assay. CT-26 colon adeno-carcinoma cells were grown and maintained in RPMI 1640 medium (GIBCO-BRL, Gaithersburg, Md.), which was supplemented with 10% fetal bovine serum (FBS), 100 U/ml penicillin, 100 U/ml streptomycin and 50 μg/ml gentamycin (all from Gibco-BRL, Gaithersburg, Md.) at 37° C. and humidified 5% CO2.
(§2) Briefly, CT-26 cell lines were seeded in 96 well plates at 4000 cells/well and incubated for 24 hours. After checking the cell confluency, which was over 80%, SSP/p2CMVmIL-12 complexes prepared at N/P ratios ranging from 5/1 to 100/1 were added to the cells at a dose of 0.15 μg pmIL-12/well. Following 48 hrs of incubation, 25 μl of 5 mg/ml 3-[4,5-dimethylthiazol-2-yl]-2,5-diphenyltetrazolium bromide (MTT, Sigma Chemical Co., St. Louis, Mo.) stock solution in phosphate buffered saline (PBS, Gibco-BRL) was poured into each well reaching a final concentration of 0.5 mg/ml MTT. The plate was then incubated at 37° C. in 5% CO2 for 4 hrs. The medium was removed and 150 μl of dimethyl sulfoxide (DMSO, Aldrich) was added to dissolve the formazan crystals. The plate was read spectrophotometrically at 570 nm in an ELISA plate reader. The relative cell viability was calculated as [Abs]sample/[Abs]control×100. […]

[3] = system: CT-26 colon adeno-carcinoma cells; experiment: Cytotoxicity MTT assay; details: SSP alone, amounts equivalent to those used in N/P ratios 20/1
Protocol: as §1, §2

| Molecule | levels of staining (CT-26 cells; 5 μM of SSP or above) | levels of staining (CT-26 cells; 10 μM SSP and above) | cells stained (ethidium bromide fluorescence) (CT-26 cells; pH 5 and 6, within 5 minutes) | cells stained (ethidium bromide fluorescence) (CT-26 cells; pH 5 and 6, within 5 minutes, listed as soluble steroidal peptide) | cells stained (ethidium bromide fluorescence) (CT-26 cells; pHs above the pKa of the imidazole ring of histidine (pKa=6.1), pH 7 and 8) | N/P ratio at which pDNA is condensed completely (plasmid DNA) | transfection / gene expression (in words) [1] | viability at 48 h [2] | cytotoxicity (in words) [3] |
| --- | --- | --- | --- | --- | --- | --- | --- | --- | --- |
| CC(C)C[C@H](NC(=O)[C@H](CCCNC(=N)N)NC(=O)[C@H](CCCNC(=N)N)NC(=O)[C@H](CCCNC(=N)N)NC(=O)[C@H](CO)NC(=O)[C@H](CCCCNC(=O)CC[C@@H](C)[C@H]1CC[C@H]2[C@@H]3CC[C@@H]4C[C@H](O)CC[C@]4(C)[C@H]3CC[C@]12C)NC(=O)[C@H](Cc1c[nH]cn1)NC(=O)[C@H](CCCNC(=N)N)NC(=O)[C@H](CCCNC(=N)N)NC(=O)[C@H](CCCNC(=N)N)NC(=O)[C@H](Cc1ccc(O)cc1)NC(=O)[C@H](Cc1c[nH]cn1)NC(=O)[C@@H](N)Cc1c[nH]cn1)C(=O)N[C@@H](Cc1c[nH]cn1)C(=O)N[C@@H](Cc1c[nH]cn1)C(N)=O [SSP] (H-HHYRRRHK(Lithocholoyl)SRRRLHH-NH2; N-terminus and C-terminus assumed) | > 85% | ~100% | over 97% | less than 25% | < 25% | 3/1 | did not give any gene expression | ~75% | non-toxic |
| HHYRRRHKSRRRLHH [Peptide sequence, reference compound] |  |  |  |  |  |  | not effective |  |  |
